Test results from PMC4119598 (Journal of natural products, 2013).

Key:
[1] = tested on: P. berghei LS parasites; experiment: Immunofluorescence analysis; type: cell-based, Plasmodium berghei; conditions: 10 μM, 48 h post-infection
[2] = target: MtFabI (Mycobacterium tuberculosis, UniProt P9WGR1); experiment: FabI enzyme inhibition assay MtFabI; type: biochemical, M. tuberculosis
[3] = tested on: BS of Plasmodium; conditions: read-out: BS IC50 (reported); cited from earlier work
[4] = tested on: fabp10a:DsRed2 zebrafish larvae; experiment: In vivo hepatotoxicity in fabp10a:DsRed2 zebrafish larvae; parameters: species or system zebrafish (Brachydanio rerio); conditions: for liver phenotype (Figure 3): 6 dpf after 3 days of exposure at MTC (60.2 μM of 1, 15.5 μM of 2, 0.3 μM of 4)

Sequence of MtFabI (P9WGR1 whole entry, looked up): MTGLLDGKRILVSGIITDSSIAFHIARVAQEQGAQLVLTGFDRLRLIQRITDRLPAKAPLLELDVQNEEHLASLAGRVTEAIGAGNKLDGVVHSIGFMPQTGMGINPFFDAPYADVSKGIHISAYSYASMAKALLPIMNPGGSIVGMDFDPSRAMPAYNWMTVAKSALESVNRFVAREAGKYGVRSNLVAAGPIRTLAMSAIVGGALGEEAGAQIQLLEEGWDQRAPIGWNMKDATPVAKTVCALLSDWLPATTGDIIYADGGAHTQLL

Row | Compound | effect on size of LS parasites (IFA) [1] | IC50 [2] [µM] | IC50 [3] [µM] | liver phenotype (Figure 3) [4] | hepatotoxicity in zebrafish larvae ([4]; highest concentrations tested, up to and including MTC)
1 | COc1cc(C(=O)O)c2c(c1C)OC(=O)c1c(C)cc(O)c(C=O)c1O2 [compound 3, psoromic acid] | no effect | > 200 | – | – | –
2 | COc1cc(NC(C)CCCN)c2ncccc2c1 (stereo not drawn) [primaquine] | – | – | 1.4 to 3.3 | – | –
3 | COC(=O)/C(=C1/OC(=O)C(c2ccccc2)=C1O)c1ccccc1 [compound 2, vulpic acid] | decrease in the size of parasites | > 200 | – | enlarged liver | –
4 | CC(=O)C1=C(O)C=C2Oc3c(C(C)=O)c(O)c(C)c(O)c3[C@@]2(C)C1=O [compound 4, (+)-usnic acid] | decrease in the size of parasites | – | – | liver with normal shape and size | no hepatotoxicity was observed
5 | COc1cc(C)c(C(=O)Oc2cc(C)c(C(=O)O)c(O)c2)c(O)c1 [compound 1, evernic acid] | no effect | > 200 | – | reduced liver size | –
